# Results as given in patent publication US20090011974A1, “Scavenger Receptor B1 (Cla-1) Targeting for the Treatment of Infection, Sepsis and Inflammation” (priority 2002, published 2009).
# Where two headings read alike, the source gives them in different places. Where no end group is shown, it is not given here. [ ]: non-standard residue; d: D form.
# Tests used:
# [1] = test system: SR-BI/CLA-1; type: cell-based, mouse; conditions: 24 h; for activity as modulator of SR-BI, ABCA1 and IL-1β gene expression compared with other LPS preparations / relative activities for the suppressive effect on SR-BI/CLA-1 and ABCA1 expression and SR-BI/CLA-1 protein expression: 10 ng/ml, RAW cells
# Protocol: (§1) Cell culture and treatment.
# (§2) RNA isolation and cDNA preparation. The total RNA of cultured cells is isolated and purified using Trizol reagent (Gibco BRL, Grand Island, N.Y.) according to the manufacturer's protocol. The concentration and quality of RNA were determined by UV absorbance at 260 and 280 nm. To prepare cDNA, total RNA (3 μg) is added to a mixture containing the following: 6 μl of 5× first-strand buffer (75 mM KCl, 50 mM Tris-HCl [pH 8.3], 3 mM MgCl2), 1.5 μl of deoxynucleoside triphosphates (10 mM [each] dATP, dCTP, dTTP, and dGTP), 1.5 μl of 0.0156 U (0.4 μg) of random hexamers, and 0.2 U of Moloney murine leukemia virus reverse transcriptase (all from Gibco BRL, Gaithersburg, Md.); 0.004 U of RNasin (Promega, Madison, Wis.); and RNase-free water to a final volume of 30 μl per 3 μg of cDNA. Samples are incubated at 37° C. for 60 min. Preliminary experiments are undertaken to achieve optimal conditions for amplifying mRNA for each of the gene products.
# Reverse transcription-PCR (RT-PCR). A mixture of 37.2 μl of RNase-free water, 5 μl of 10× reaction buffer, and 0.5 μl (5 U) of AmpliTaq Gold DNA polymerase (Applied Biosystems, Roche Molecular Systems, Inc., Branchburg, N.J.), sense and antisense primers (1 μl each), and 0.3 μl (3 μCi) of [α-^32P]dCTP (Amersham Pharmacia Biotech, San Diego, Calif.) is vortexed, and 46 μl is aliquoted into each tube, containing 4 μl of cDNA, and overlaid with 50 μl of mineral oil (Sigma Chemical Co.). cDNA is amplified in a Perkin-Elmer (Norwalk, Conn.) System 2400 DNA thermal cycler, with denaturation for 1 min at 94° C., annealing for 1 min at 50° C., and extension for 2 min at 72° C. for GADPH (glyceraldehyde-3-phosphate dehydrogenase) (19 cycles), ABCA1 (28 cycles), SR-BI/CLA-1, and interleukin-1 [3 (IL-1β (27 cycles). The primers used in these analyses are as follows: GADPH, (SEQ ID NO:1) 5′-[…]-3′ and (SEQ ID NO:2) 5′-[…]-3′; SR-BI/CLA-1, (SEQ ID NO:3) 5′-CCA […] GGC TTC TGC-3′ and (SEQ ID NO:4) 5′-CTG AAT GGC CTC CTT ATC C-3′; ABCA1, (SEQ ID NO:5) 5′-CAACTACAAAGCCCTCTTTG-3′ and (SEQ ID NO:6) 5′-CTTGGCTGTTCTCCATGAAG-3′; and IL-1β, (SEQ ID NO:7) 5′-CTG AAA GCT CTC CAC CTC-3′ and (SEQ ID NO:8) 5′-GTG CTG ATG TAC CAG TTG-3′.
# (§3) For the densitometry analysis, the intensities of the bands are measured with the Gel-Pro Analyzer 3.0 computer program and normalized with GADPH intensity.
# [2] = test system: SR-BI/CLA-1; assay: Competition for 125I-HDL binding sites in RAW cells; set-up: species or system mouse; conditions: 50 μg/ml LPS analogs
# Protocol: Competition Binding Experiments. RAW cells are cultured for 24 hr in serum free DMEM before experiment. […] Cell radioactivity is measured as described in the “LPS-binding assay” section.
# [3] = target: T1, CLA-1 (Homo sapiens, UniProt Q8WTV0); type: binding; conditions: for competition of unlabelled ligands against 125I-LPS (0111:B4): 100× excess unlabeled ligand, CLA-1 overexpressing and mock-transfected cells
# T1 construct: using the expression plasmid pTRE2 (Clontech, Pal Alto, Calif.), encoding a CLA-1 protein (pTRE2-CLA-1); expressed in transfected cells; host or cells: HeLa (Tet-off) cells (Clontech), stably co-transfected with pTRE2-CLA-1 and pTK-Hyg and selected with hygromycin
# T1 sequence (Q8WTV0 1-509 isoform Q8WTV0-2): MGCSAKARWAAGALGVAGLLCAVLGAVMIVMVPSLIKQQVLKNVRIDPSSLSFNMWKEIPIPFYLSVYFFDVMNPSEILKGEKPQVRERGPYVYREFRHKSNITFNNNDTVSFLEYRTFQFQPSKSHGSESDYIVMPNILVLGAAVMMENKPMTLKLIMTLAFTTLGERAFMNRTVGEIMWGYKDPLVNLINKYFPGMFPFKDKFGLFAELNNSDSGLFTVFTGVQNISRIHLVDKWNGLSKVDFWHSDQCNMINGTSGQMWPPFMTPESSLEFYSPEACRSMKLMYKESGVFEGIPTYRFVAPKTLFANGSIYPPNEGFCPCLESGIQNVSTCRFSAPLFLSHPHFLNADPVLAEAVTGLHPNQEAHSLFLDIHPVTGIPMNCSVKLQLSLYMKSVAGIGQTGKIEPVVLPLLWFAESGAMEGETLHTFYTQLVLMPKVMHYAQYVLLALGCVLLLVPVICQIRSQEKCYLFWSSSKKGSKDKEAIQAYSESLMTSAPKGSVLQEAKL
# Protocol: The lipopolysaccharide 0111:B4 (Sigma) is iodinated as reported by Ulevitch, R J. (1978) (“THE PREPARATION AND CHARACTERIZATION OF A RADIO IODINATED BACTERIAL LIPOPOLYSACCHARIDE,” Immunochemistry 15:157-164). […] After a 2-hr-incubation on ice, the cells are rinsed with ice-cold HBSS and utilized for radioactivity measurements as reported by Bocharov, A. V. et al. (2001) (“CHARACTERIZATION OF A 95 KDA HIGH AFFINITY HUMAN HIGH DENSITY LIPOPROTEIN-BINDING PROTEIN,” Biochemistry 40:4407-4416). Specific binding is determined as the difference between total and non-specific binding, and normalized by protein content.
# HeLa cells grown until 70% confluence in DMEM with 10% FCS are washed with PBS and cultured for 24 hr in serum-free DMEM. […] After washing with ice-cold PBS, the cells are hydrolyzed in 1 N NaOH. Radioactivity is counted in an LKB Wallac Ultragamma counter.
# [4] = test system: THP-1 cells; assay: LPS-stimulated cytokine production in THP-1 cells (ELISA); type: cell-based, human; conditions: 10 ng/ml LPS, 24 h
# Protocol: (§4) THP-1 and CLA-1 overexpressing HeLa cells. Human monocyte-macrophages, THP-1 (ATCC [American Type Culture Collection] TIB 71), are grown in 48-well plates in RPMI 1640 medium supplemented with 10% fetal calf serum (FCS), penicillin (100 U/ml), and streptomycin (100 μg/ml). All experiments involving LPS-induced interleukin production utilize the same media except that 1% FCS was used. Hela cells were cultured as previously reported (Vishnyakova, T. G. et al. (2003) “BINDING AND INTERNALIZATION OF LIPOPOLY[…] CLA-1, A HUMAN ORTHOLOGUE OF RODENT […] RECEPTOR B1,” J. Biol. Chem 278:22771-22780).
# Assays for cytokines and lactate dehydrogenase (LD). […]
# [5] = test system: THP-1 cells; assay: LTA, Gro-EL and HSP60 stimulated IL-8/IL-6 production in THP-1 cells; type: cell-based, human; conditions: 1 μg/ml LTA or Gro-EL, 10-200 fold excess of peptide
# Protocol: as §4
# (§5) Assays for cytokines and lactate dehydrogenase (LD).
# [6] = Limulus amebocyte lysate (LAL) assay for LPS incubated with peptides; conditions: RPMI-1640 1% FCS or DPBS; 10 ng/ml LPS, 10 μg/ml peptide, 37° C., 24 h
# Source text: Limulus Amebocyte Lysate (LAL) Assay for LPS.
# Limulus amebocyte lysate (LAL) assay for LPS.
# [7] = test system: THP-1 cells; assay: TNFα-induced IL-6 and IL-8 secretion in THP-1 cells; type: cell-based, human
# Source text: as §5
# [8] = test system: ABCA1; assay: RT-PCR of ABCA1 mRNA in RAW cells exposed to LPS preparations; type: cell-based, mouse; conditions: inhibitor 20 mM added 2 h before LPS 10 ng/ml, 24 h
# Protocol: as §1, §2
# (§6) Reverse transcription-PCR (RT-PCR). […]
# as §3
# [9] = test system: IL-1β; assay: RT-PCR of IL-1β mRNA in RAW cells exposed to LPS preparations; type: cell-based, mouse; conditions: 24 h
# Protocol: as §1, §2, §6, §3
# [10] = target: T1, CLA-1; assay: 125I-HDL binding and HDL-CE uptake in CLA-1 stably transfected HeLa cells
# Protocol: CLA-1 Overexpression HeLa cells. HeLa (Tet-off) cells (Clontech, Pal Alto, Calif.) are grown in DMEM (Invitrogen), supplemented with 10% fetal calf serum, 2 mM glutamine, 100 IU/ml of penicillin, 100 μg/ml of streptomycin, and 100 μg/ml of G418. Cells were transfected with FuGENE-6 (Roche Diagnostics), using the expression plasmid pTRE2 (Clontech, Pal Alto, Calif.), encoding a CLA-1 protein (pTRE2-CLA-1). Cells were co-transfected with pTRE2-CLA-1 and pTK-Hyg (Clontech, Pal Alto, Calif.), using a 1:20 ratio, and selected with 400 μg/ml of hygromycin. Hygromycin resistant cells were screened for the expression of the CLA-1 protein by utilizing rabbit anti-SR-BI/CLA-1 (Novus Biological, Inc) by Western blotting.
# HDL-Binding And Cholesteryl Oleoyl Uptake Assays. Saturation binding experiments are performed at 4° C. using ^125I-HDL concentrations between 1.25 and 40 μg/ml. […] After a 2 hr-incubation on ice, specific binding is determined as reported by Bocharov, A. V. et al. (2001) (“CHARACTERIZATION OF A 95 KDA HIGH AFFINITY HUMAN HIGH DENSITY LIPOPROTEIN-BINDING PROTEIN,” Biochemistry 40:4407-4416).
# HDL-[^3H]CE uptake experiments are performed in a serum free DMEM containing 0.2% BSA. […] Specific uptake is determined as the difference between total and nonspecific uptake.
# [11] = target: T2, CLA-1 (CD36 and LIMPII Analogous-1), human scavenger receptor class B type I (human, UniProt Q8WTV0 1-552); assay: confocal microscopy of Alexa 568-labelled peptide uptake, CLA-1 HeLa against mock HeLa
# T2 construct: whole, on cells; Target is CLA-1 on stably transfected HeLa cells, compared with mock-transfected HeLa cells, which carry a low endogenous level of CLA-1; also called SR-BI/CLA-1; human SR-BI
# T2 sequence (looked up): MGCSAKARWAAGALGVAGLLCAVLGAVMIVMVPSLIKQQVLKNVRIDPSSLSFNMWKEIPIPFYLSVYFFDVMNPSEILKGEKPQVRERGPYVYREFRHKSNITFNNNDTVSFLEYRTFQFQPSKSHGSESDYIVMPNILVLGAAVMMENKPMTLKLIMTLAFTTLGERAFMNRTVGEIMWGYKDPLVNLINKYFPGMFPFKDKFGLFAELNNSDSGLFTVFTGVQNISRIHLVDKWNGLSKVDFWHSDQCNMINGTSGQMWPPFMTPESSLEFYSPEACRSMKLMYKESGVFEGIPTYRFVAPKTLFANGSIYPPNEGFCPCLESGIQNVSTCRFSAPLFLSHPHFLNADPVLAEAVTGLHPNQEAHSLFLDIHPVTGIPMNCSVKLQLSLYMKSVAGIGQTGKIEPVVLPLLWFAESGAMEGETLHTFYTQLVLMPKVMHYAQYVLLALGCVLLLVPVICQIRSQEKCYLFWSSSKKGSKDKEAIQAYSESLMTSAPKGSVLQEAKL
# [12] = inhibitor 20 mM added 2 h before LPS 10 ng/ml
molecule,measurement,setting,value
diphosphoryllipid A [DPLA],"activity as modulator of SR-BI, ABCA1 and IL-1β gene expression compared with other LPS preparations",[1],the same activity as the complete form of LPS from E. coli
same,relative activities for the suppressive effect on SR-BI/CLA-1 and ABCA1 expression and SR-BI/CLA-1 protein expression,[1],LPS (Re595)>LPS (0111:B4)>DPLA>MPLA
same,decrease of 125I-HDL-binding by forms of LPS,[2],similarly decreased
same,competition of unlabelled ligands against 125I-LPS (0111:B4),[3],compete against iodinated LPS in both cell lines
DWLKAFYDKVAEKLKEAF-P-DWLKAFYDKVAEKLKEAF [D-37PA] ([dD][dW][dL][dK][dA][dF][dY][dD][dK][dV][dA][dE][dK][dL][dK][dE][dA][dF][dP][dD][dW][dL][dK][dA][dF][dY][dD][dK][dV][dA][dE][dK][dL][dK][dE][dA][dF]) [Peptide D-37PA],competition against 125I-LPS,"[3]; 1 μg/ml 125I-LPS, mock transfected and CLA-1 overexpressing HeLa cells",competed in a dose-dependent manner
same,"effect on LPS-stimulated cytokine (IL-8, IL-6, TNF-α) production",[4],similarly effective in a blocking
same,effect on LTA and Gro-EL stimulated IL-8 and IL-6 production,[5],similarly effective in blocking
same,effect on LAL activity of LPS in media containing bivalent cations,[6],neither L-37PA nor D-37PA affected LPS's endotoxin activity
same,effect on TNFα-induced IL-6 and IL-8 production,[7],neither peptides was effective in blocking
"Cc1ccc(S(=O)(=O)N[C@@H](Cc2ccccc2)C(=O)CCl)cc1 [TPCK, tosylphenyl chloromethyl ketone]",effect on LPS-induced SR-BI/CLA-1 mRNA level decrease,[1]; [12],effectively prevented
same,effect on LPS-induced ABCA1 mRNA level decrease,[8],effectively prevented
same,effect on LPS-induced increase of IL-1β mRNA,[9]; [12],effectively prevented
lipid A,competition for 125I-HDL-binding to CLA-1 overexpressing human HeLa cells,[10],all competed
monophosphoryllipid A [MPLA],"activity as modulator of SR-BI, ABCA1 and IL-1β gene expression compared with other LPS preparations",[1],decreased activity compared to the other LPS derivatives
same,relative activities for the suppressive effect on SR-BI/CLA-1 and ABCA1 expression and SR-BI/CLA-1 protein expression,[1],LPS (Re595)>LPS (0111:B4)>DPLA>MPLA
same,"activity as modulator of SR-BI, ABCA1 and IL-1β gene expression compared with other LPS preparations",[1]; listed as Re595 MPLA,less potent modulator
same,potency for IL-1β gene induction relative to Re595 LPS or DPLA,"[9]; 10 ng/ml, RAW cells",approximately one-half
same,competition of unlabelled ligands against 125I-LPS (0111:B4),[3],compete against iodinated LPS in both cell lines
DWLKAFYDKVAEKLKEAF (Synthetic single class A amphipathic helix; also called 18PA; L18PA) [18A],binding result,[11],no binding
